Laboratory results taken from article PMC6099682, “(-)-Shikimic Acid as a Chiral Building Block for the Synthesis of New Cytotoxic 6-Aza-Analogues of Angucyclinones” (Molecules : A Journal of Synthetic Chemistry and Natural …, 2018).
Where two headings read alike, the source gives them in different places.

Legend:
HT-29 (colon cancer) = assay: Sulforhodamine B cytotoxicity assay, HT-29; type: cell-based; details: for Selectivity index (SI), ratio of IC50 in CoN in cancer cells, HT-29: CCD841-CoN IC50 / HT-29 IC50; for IC50: 72 h continuous exposure, SRB assay, mean ± SD
Description: (§1) To analyse the scope of the shikimic-fragment incorporated in the angucycline scaffold on the cytotoxic activity of these compounds, we included five previously obtained compounds (Figure 2, [32]). Therefore, the cytotoxicity of the new nine synthesised compounds, and of the five aforementioned compounds, was evaluated in vitro against different cancer cell lines: PC-3 (prostate cancer), HT-29 (colon cancer), MCF-7 (breast cancer), and one non-tumoral cell line, human colon epithelial cells (CCD841 CoN). A conventional colorimetric assay was set up to estimate the IC50 values, which represent the concentration of a drug that is required for 50% inhibition in vitro after 72 h of continuous exposure to the test compounds. Several serial dilutions (from 1.25 to 100 µM) for each sample were evaluated in triplicate.
(§2) The experimental cell lines were obtained from the American Type Culture Collection. HT-29 (colon cancer cell line), PC-3 (prostate cancer), MCF-7 (breast cancer), and CCD841 CoN (colon epithelial) were grown in DMEM-F12 containing 10% FCS, 100 U/mL penicillin, 100 µg/mL streptomycin, and 1 mM glutamine.
(§3) The in vitro cytotoxic activities of all the compounds were evaluated on cell lines previously mentioned by the sulforhodamine B assay, according to [42]. Briefly, cells were seeded at a plating density of 5 × 10^3 cells/well into 96 well plates. Cells were incubated at 37 °C for 24 h to allow cell attachment. The test compounds at indicated final concentrations were added to the culture medium and the cell cultures were continued for 72 h under the same conditions. Stock solutions of compounds were prepared in DMSO. Control cultures received 0.1% DMSO alone. At the end of the treatment, cells were fixed with trichloroacetic acid (50% w/v) at 4 °C and, subsequently, washed with water. Cells were stained with 0.1% sulforhodamine B in 1% acetic acid for 30 min. Posteriorly, the cells were washed acetic acid (1%) to remove unbound sulforhodamine B. Protein-bound stain was solubilized with 10 mM unbuffered Tris base). The optical density was determined using a […] plate reader (540 nm). The obtained values are transformed to percentages of viable cells versus control treatment and the IC50 values calculated for each compound in the cell lines were studied using the SigmaPlot 12.0 software (Systat Software, San Jose, CA, USA). Values shown are the mean ± SD of the three independent experiments in triplicate.

MCF-7 (breast cancer) = assay: Sulforhodamine B cytotoxicity assay, MCF-7; type: cell-based; details: for Selectivity index (SI), ratio of IC50 in CoN in cancer cells, MCF-7: CCD841-CoN IC50 / MCF-7 IC50; for IC50: Homo sapiens, MCF7, 72 h continuous exposure, SRB assay
Description: as §1, §2, §3

[1] = test system: human colon epithelial cells (CCD841 CoN); assay: Sulforhodamine B cytotoxicity assay, non-tumoral CCD841 CoN; type: cell-based; details: CCD-841CoN, 72 h continuous exposure, SRB assay, mean ± SD
Description: as §1, §2, §3

PC-3 (prostate cancer) = assay: Sulforhodamine B cytotoxicity assay, PC-3; type: cell-based; details: for IC50: 72 h continuous exposure, SRB assay, mean ± SD; for Selectivity index (SI), ratio of IC50 in CoN in cancer cells, PC-3: CCD841-CoN IC50 / PC-3 IC50
Description: as §1, §2, §3

lung carcinoma, MBA9812 = test system: lung carcinoma, MBA9812; parameters: method as in doi:10.1021/jo00007a009; details: cited from earlier work
MCF-7 = test system: MCF-7; parameters: method as in PMID 23136829; details: read-out: IC50, in vitro cytotoxicity toward MCF-7; cited from earlier work
SF-268 = test system: SF-268; parameters: method as in PMID 23136829; details: read-out: IC50, in vitro cytotoxicity toward SF-268; cited from earlier work
Staphylococcus aureus = test system: Staphylococcus aureus; parameters: method as in PMID 26968676; details: cited from earlier work
[2] = mean ± SD, read-out: IC50 Values MCF-7

Compound	melting point [°C]	Selectivity index (SI), ratio of IC50 in CoN in cancer cells, HT-29 (HT-29 (colon cancer))	IC50 (HT-29 (colon cancer); Homo sapiens, HT-29, 72 h) [µM]	Selectivity index (SI), ratio of IC50 in CoN in cancer cells, MCF-7 (MCF-7 (breast cancer))	IC50 (MCF-7 (breast cancer); [2]) [µM]	IC50 [1] [µM]	IC50 (PC-3 (prostate cancer); 72 h) [µM]	Selectivity index (SI), ratio of IC50 in CoN in cancer cells, PC-3 (PC-3 (prostate cancer))	IC50 (HT-29 (colon cancer)) [µM]	activity against the lung carcinoma, MBA9812, in mice (lung carcinoma, MBA9812)	IC50 (MCF-7 (breast cancer); read-out: IC50 value MCF-7) [µM]	IC50 (PC-3 (prostate cancer)) [µM]	IC50 (MCF-7) [µM]	IC50 (SF-268) [µM]	antibacterial activities against Staphylococcus aureus (Staphylococcus aureus)
CC(=O)Oc1cccc2c1C(=O)C1=C(C2=O)[C@H]2C(=CN1N(C)C)C[C@@H](O[Si](C)(C)C(C)(C)C)[C@@H]1OC(C)(C)O[C@H]21 [Compound 7b]		0.4	2.1 ± 1.2	0.1	12.1 ± 4	0.8 ± 0.1	2.4 ± 0.9	0.3							
COc1cccc2cnc3c(c12)C(=O)c1ccccc1C3=O [Compound 20, 1-Methoxybenzo[b]phenanthridine-7,12-dione]		6.4	~3	1.7	14 ± 1.7	23.6 ± 3.4	7.8 ± 1	3.0	3.7 ± 1.2						
CC1(C)O[C@@H]2[C@H](O1)c1c(cnc3c1C(=O)c1c(O)ccc(O)c1C3=O)C[C@H]2O[Si](C)(C)C(C)(C)C [Compound 9b]		1.1	15 ± 4.2	0.6	28.3 ± 4	15.6 ± 2.1	13.1 ± 2	1.2							
CN[C@H]1C[C@@H](Oc2cc(C)cc3cnc4c(c23)C(=O)c2cccc(O)c2C4=O)O[C@H](C)[C@H]1O [Compound 4a, phenanthroviridin]										active					
CO[C@@H]1[C@H](OC)c2c(cnc3c2C(=O)c2ccccc2C3=O)C[C@H]1OC [Compound 17, (1R,2S,3R)-1,2,3-Trimethoxy-1,2,3,4-tetrahydrobenzo[b]phenanthridine-7,12-dione]	184.8	3.6	~3	1.0	11.9 ± 1.5	11.8 ± 1.3	3.9 ± 0.6	3.0	3.3 ± 0.9						
CO[C@@H]1[C@@H]2C(=CN(N(C)C)C3=C2C(=O)c2ccccc2C3=O)C[C@@H](OC)[C@@H]1OC [Compound 15, (1R,2S,3R,12bR)-6-(Dimethylamino)-1,2,3-trimethoxy-1,2,3,4,6,12b-hexahydrobenzo[b]phenanthridine-7,12-dione]	128.5	2.8	29.2 ± 6.8	1.0	78.1 ± 6.9	81.6 ± 15.8	34.8 ± 0.3	2.3							
CC1(C)O[C@@H]2[C@H](O1)c1c(cnc3c1C(=O)c1ccccc1C3=O)C[C@H]2O[Si](C)(C)C(C)(C)C [Compound 9a]		0.8	3.7 ± 0.8	0.2	17.8 ± 3	2.8 ± 0.4	7.6 ± 1.2	0.4							
CN(C)N1C=C2C[C@@H](O[Si](C)(C)C(C)(C)C)[C@@H]3OC(C)(C)O[C@@H]3[C@H]2C2=C1C(=O)c1c(O)cccc1C2=O [Compound 7a]		11.5	< 0.4	0.1	16 ± 1	2.3 ± 0.3	< 1	3.3	0.2 ± 0.05			0.7 ± 0.1			
CC1(C)O[C@@H]2[C@@H]3C(=CNC4=C3C(=O)c3ccccc3C4=O)C[C@@H](O[Si](C)(C)C(C)(C)C)[C@@H]2O1 [Compound 8]		1.8	7.8 ± 0.9	3.3	4.2 ± 4.2	13.8 ± 1	5.7 ± 1.3	2.4							
Cc1cc(O)c2c3c(ncc2c1)C(=O)c1c(O)cccc1C3=O [Compound 4b, phenanthroviridone]										active			0.17	0.09	antibacterial activities

The next lines start with results.

melting point [°C]	Compound	Selectivity index (SI), ratio of IC50 in CoN in cancer cells, HT-29 (HT-29 (colon cancer))	IC50 (HT-29 (colon cancer); Homo sapiens, HT-29, 72 h) [µM]	Selectivity index (SI), ratio of IC50 in CoN in cancer cells, MCF-7 (MCF-7 (breast cancer))	IC50 (MCF-7 (breast cancer); [2]) [µM]	IC50 [1] [µM]	IC50 (PC-3 (prostate cancer); 72 h) [µM]	Selectivity index (SI), ratio of IC50 in CoN in cancer cells, PC-3 (PC-3 (prostate cancer))	IC50 (HT-29 (colon cancer)) [µM]	activity against the lung carcinoma, MBA9812, in mice (lung carcinoma, MBA9812)	IC50 (MCF-7 (breast cancer); read-out: IC50 value MCF-7) [µM]	IC50 (PC-3 (prostate cancer)) [µM]	IC50 (MCF-7) [µM]	IC50 (SF-268) [µM]	antibacterial activities against Staphylococcus aureus (Staphylococcus aureus)
177.3	CO[C@@H]1[C@@H]2C(=CNC3=C2C(=O)c2cccc(O)c2C3=O)C[C@@H](OC)[C@@H]1OC [Compound 16b, (1R,2S,3R,12bR)-8-Hydroxy-1,2,3-trimethoxy-1,2,3,4,6,12b-hexahydrobenzo[b]phenanthridine-7,12-dione]	2.9	5.3 ± 0.8	1.3	11.5 ± 3.1	15.5 ± 3.1	6.6 ± 1.1	2.3							
78.8	CO[C@H]1C=Cc2cnc3c(c2[C@@H]1OC)C(=O)c1cccnc1C3=O [Compound 19a, (1S,2S)-1,2-Dimethoxy-1,2-dihydropyrido[3,2-b]phenanthridine-7,12-dione]			4.0	0.01 ± 0.005	0.04 ± 0.01		0.5			~0.01				
161.5	CO[C@@H]1[C@@H]2C(=CNC3=C2C(=O)c2ccccc2C3=O)C[C@@H](OC)[C@@H]1OC [Compound 16a, (1R,2S,3R,12bR)-1,2,3-Trimethoxy-1,2,3,4,6,12b-hexahydrobenzo[b]phenanthridine-7,12-dione]	2.7	42.9 ± 8.4	1.0	118 ± 10.8	116 ± 17.8	23.6 ± 3.7	4.9							
161.2	CO[C@H]1C=Cc2cnc3c(c2[C@@H]1OC)C(=O)c1ccc(C)nc1C3=O [Compound 19b, (1S,2S)-1,2-Dimethoxy-9-methyl-1,2-dihydropyrido[3,2-b]phenanthridine-7,12-dione]		< 0.4	1.6	0.19 ± 0.04	0.3 ± 0.02		0.7	0.39 ± 0.04						
139	CO[C@@H]1[C@@H]2C(=CNC3=C2C(=O)c2c(O)ccc(O)c2C3=O)C[C@@H](OC)[C@@H]1OC [Compound 16c, (1R,2S,3R,12bR)-8,11-Dihydroxy-1,2,3-trimethoxy-1,2,3,4,6,12b-hexahydrobenzo[b]phenanthridine-7,12-dione]	2.2	4 ± 0.3	0.7	13.5 ± 0.9	8.8 ± 1.3	6.4 ± 0.8	1.4							
117.5	CO[C@H]1C=Cc2cnc3c(c2[C@@H]1OC)C(=O)c1ccccc1C3=O [Compound 19c, (1S,2S)-1,2-Dimethoxy-1,2-dihydrobenzo[b]phenanthridine-7,12-dione]	0.8	21 ± 3.6	1.4	12.8 ± 1.4	17.4 ± 2	4 ± 0.4	4.4							
